Data: publication doi:10.1101/2024.10.01.616164v1 (biorxiv, 2024)
Where a name gives a salt, the structure may show the parent alone.

What was measured:
LON-1 [1] = target: LON-1 (Caenorhabditis elegans, UniProt Q09566, V175A); assay: biochemical
LON-1 [2] = target: LON-1 (Caenorhabditis elegans, UniProt Q09566, C207S); assay: biochemical
LON-1 [3] = target: LON-1 (Caenorhabditis elegans, UniProt Q09566, E153A); assay: biochemical
LON-1 [4] = target: LON-1 (Caenorhabditis elegans, UniProt Q09566, C185Y); assay: biochemical
Sequence of LON-1 (Caenorhabditis elegans, UniProt Q09566, C185Y) (Q09566 24-312 C185Y): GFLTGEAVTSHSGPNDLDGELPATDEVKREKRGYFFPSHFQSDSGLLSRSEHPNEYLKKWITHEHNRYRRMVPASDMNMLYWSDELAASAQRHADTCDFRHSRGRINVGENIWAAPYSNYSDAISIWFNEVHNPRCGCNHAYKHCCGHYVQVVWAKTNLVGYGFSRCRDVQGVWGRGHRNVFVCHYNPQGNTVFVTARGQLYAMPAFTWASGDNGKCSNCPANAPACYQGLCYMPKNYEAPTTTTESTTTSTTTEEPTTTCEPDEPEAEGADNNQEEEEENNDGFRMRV

LON-1 [5] = target: T1, LON-1 (Caenorhabditis elegans, UniProt Q09566); assay: microscale thermophoresis; type: binding
T1 sequence (Q09566 24-312): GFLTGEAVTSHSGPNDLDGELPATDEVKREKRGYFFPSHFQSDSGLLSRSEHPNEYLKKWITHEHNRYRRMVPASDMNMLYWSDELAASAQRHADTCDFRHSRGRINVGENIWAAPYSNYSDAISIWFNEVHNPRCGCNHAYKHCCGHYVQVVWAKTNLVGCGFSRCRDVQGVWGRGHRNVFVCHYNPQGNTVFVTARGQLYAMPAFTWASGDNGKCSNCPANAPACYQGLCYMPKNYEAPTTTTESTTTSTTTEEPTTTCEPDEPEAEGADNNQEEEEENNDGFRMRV

Sequence of LON-1 (Caenorhabditis elegans, UniProt Q09566, E153A) (Q09566 24-312 E153A): as the sequence (Q09566 24-312 C185Y) above, with E130A, Y162C counted along it
Sequence of LON-1 (Caenorhabditis elegans, UniProt Q09566, V175A) (Q09566 24-312 V175A): as the sequence (Q09566 24-312 C185Y) above, with V152A, Y162C counted along it
Sequence of LON-1 (Caenorhabditis elegans, UniProt Q09566, C207S) (Q09566 24-312 C207S): as the sequence (Q09566 24-312 C185Y) above, with Y162C, C184S counted along it

SMILES | Kd (LON-1 [1]) | Kd (LON-1 [2]) | Kd (LON-1 [3]) | Kd (LON-1 [4]) | Kd (LON-1 [5])
CC(C)CCC[C@@H](C)[C@H]1CC[C@H]2[C@@H]3CC=C4C[C@@H](OS(=O)(=O)O)CC[C@]4(C)[C@H]3CC[C@]12C [cholesterol sulfate] | 76 ± 24 µM | 332 ± 145 µM | 26 ± 8 µM | 261 ± 92 µM | ~19 µM
CCCCCCCCCCCCCCCC(=O)O [palmitic acid] |  |  |  |  | ~430 µM
